Marks after values point to notes of the source that are not given here. Residues, ends and D or L forms follow the SMILES beside them.
How the values were obtained:
[1] = system: plaque-forming cells (PFC); experiment: Number of plaque-forming cells (PFC) in Balb/c nu/nu mice; assay type: in vivo; conditions: for number of plaque-forming cells (PFC): n = 8/group, control 55.7 (TP5), 53.0 (TP3)
Procedure: (§1) 1.3./Determination of the number of plaque-forming cells (PFC) (using rat spleen cells) The chopped splenocytes were placed in a culture medium (Parker 199) and then shaken with a shaker for 1 minute. The cells were suctioned from the surface of the rapidly settling tissue debris. Red blood cells were removed osmotically. Cell suspensions were adjusted to 107/ml. The cell suspensions were mixed with a 15% BVVT cell suspension in a ratio of 2:1. PFC was determined with the mixture using a modified chamber technique according to Channingham et al., 1966). Before filling the chamber, 50 μl of fresh diluted guinea pig serum (1:20) was added. The chambers (2-2/slide) were incubated (370C 45′) after sealing with paraffin, the formed plaques were counted under a microscope (at 400× magnification) within 2 hours Marker tests related to the rejection reaction of an adult thymus-depleted mouse skin graft 1.4./Rejection of skin transplants in nude mice after treatment with TP fragments (Snell et al., Transplantation 5, 492, 1967).
Mice were treated for 4 weeks 3 times a week (every other day) with TP fragments (10-9, 10-8, 10-7//10-3, 10-2, 10-1 M/animal ip. (Veys et al., 1983) at the end of the treatments ([…]), the mice were immunized (with 0.5 ml 1% BVVT suspension ip. The immune response was expressed in antibody titers as above).

[2] = system: PFC; experiment: PFC cell count in aged mice; assay type: in vivo, aged mice (Balb/c); conditions: first value column under head 'PFC IgM/logx^2'; aged mice 18 months old; n = 8/group; young control 6.3, aged 3.7
Procedure: as §1
TP effect on antibody production and PFC cell count in aged mice (Balb/c)

[3] = system: antibody production (IgM); experiment: Antibody production (IgM) in aged mice; assay type: in vivo, aged mice (Balb/c); conditions: second value column under head 'PFC IgM/logx^2'; aged mice 18 months old; n = 8/group; young control 84.1, aged 41.0
[4] = system: Anti-SRBC-Ab (IgM); experiment: Anti-SRBC-Ab titer (IgM) in newborn rats after 9x treatment (hemagglutination); assay type: in vivo, Hannover Wistar rats (newborn); conditions: 9x (3x3 weeks/ip), n = 12, control 6.3 (TP5), 5.2 (TP3)
Procedure: (§2) Rats (Hannover Wistar) were treated (i.p.) within 6-12 hours after birth. Treatments after birth in a single session or in another examination • on the 7th day after the first treatment; • another group was vaccinated 3 times a week after the first day of […]. treatment • in a subsequent group treated over three weeks (9× in total) (10-3,10-5,10-7//10-9, 10-11,10-12, 10-13 M/animal, i.p). • in the fourth test series, the animals were treated with TP fragments at 0, 1, 2, 4, or 5 days of age. The rats were unanimously immunized on the 14th day after birth (1% BVVT with 0.5 ml cell suspension, i.p.). Immune responses were measured after 7 days on day 21 of the experiment.
(§3) Rats (Hannover Wistar) were treated (i.p.) within 6-12 hours after birth. Treatments after birth in a single session or in another examination • on the 7th day after the first treatment; • another group was vaccinated 3 times a week after the first day of treatment. • in a subsequent group, the treatments took place over three weeks (9× in total) (10-3,10-5,10-7//10-9, 10-11,10-12,10-13 M/animal, i.p.). • in the fourth test series, the animals were treated with TP fragments at 0, 1, 2, 4, or 5 days of age. The rats were randomly immunized on the 14th day after birth (1% BVVT with 0.5 ml cell suspension, i.p.). Immune responses were measured after 7 days on day 21 of the experiment. 1.2. Determination of anti-BVVT Ab titers (from rat blood samples ex vivo) • with the haemagglutination method (Takátsy and Fürész, 1955) on 96-well plates (Flow). 50 ul of 0.9% NaCl solution was added to each well. The sera (50 μl) were diluted by half dilution in 12 steps, mixed with 25 pμl 2% BVVT cell suspension, and incubated (1 hour at 37 °C). The hemagglutination titers of the sera are determined. Values expressed in logarithmic values refer to total agglutination.

[5] = system: PFC (plaque-forming cells); experiment: PFC (plaque-forming cells) in H. Wistar rats; assay type: in vivo, Hannover Wistar rats (newborn); conditions: for PFC (plaque-forming cells): 1x/ip, control 53.9 ± 8.8; for PFC (plaque-forming cells) / number of PFC: n = 12; for number of PFC: 9x (3x3 weeks/ip), control 139 ± 12.7
Procedure: as §2, §3, §1

[6] = system: Active E-rosette forming cells (human lymphocytes); experiment: Active E-rosette forming cells; assay type: cell-based; conditions: control 6.3 (TP5), 5.2 (TP3)
Procedure: The test was carried out according to the method of (Wybran and Fundenberg 1973). 107/ml lymphocytes from either healthy blood donors or autoimmune patients were included in the tests. The effect of the substances was tested in the presence of 100 μl of […]. test compound. After an incubation period, 100 μul of cell suspension was placed on a glass slide, fixed for 3 minutes (with 50 μl of 3% glutaraldehyde solution), and stored in a humid chamber until evaluation.

[7] = system: tumour patients (metastatic melanoma); conditions: 26 studies, 2,736 patients, in words, cited from earlier work
[8] = system: T cells; conditions: Schlesinger et al. 1978, in words; cited from earlier work

CC(C)[C@H](NC(=O)[C@H](CC(=O)O)NC(=O)[C@H](CCCCN)NC(=O)[C@@H](N)CCCN=C(N)N)C(=O)N[C@@H](Cc1ccc(O)cc1)C(=O)O [TP5] (H-RKDVY-OH)
number of plaque-forming cells (PFC) ([1]; 10^-1 M/mouse (M/eger)): 76.5* | number of plaque-forming cells (PFC) ([1]; 10^-2 M/mouse (M/eger)): 73.0* | number of plaque-forming cells (PFC) ([1]; 10^-3 M/mouse (M/eger)): 67.4 | increase in number of PFC cells ([1]; 10^-3 M/mouse/i.p.): 35% | number of plaque-forming cells (PFC) ([1]; 10^-6 M/mouse (M/eger)): 72.5* | number of plaque-forming cells (PFC) ([1]; 10^-7 M/mouse (M/eger)): 71.0* | number of plaque-forming cells (PFC) ([1]; 10^-8 M/mouse (M/eger)): 9.5 | PFC [2]: 6.1* | IgM/logx^2 [3]: 44.7 logx^2 | Anti-SRBC-Ab titer (IgM) ([4]; 10^-3 M/animal): 7.3 2 log | Anti-SRBC-Ab titer (IgM) ([4]; 10^-4 M/animal): 8.2* 2 log | Anti-SRBC-Ab titer (IgM) ([4]; 10^-5 M/animal): 8.6* 2 log | Anti-SRBC-Ab titer (IgM) ([4]; 10^-6 M/animal): 7.5 2 log | Anti-SRBC-Ab titer (IgM) ([4]; 10^-9 M/animal): 7.2 2 log | Anti-SRBC-Ab titer (IgM) ([4]; 10^-11 M/animal): 10.7* 2 log | Anti-SRBC-Ab titer (IgM) ([4]; 10^-13 M/animal): 7.9* 2 log | PFC (plaque-forming cells) ([5]; 10^-6 M/animal): 71 | number of PFC ([5]; 10^-6 M/animal): 159 | PFC (plaque-forming cells) ([5]; 10^-7 M/animal): 129* | number of PFC ([5]; 10^-7 M/animal): 203* | PFC (plaque-forming cells) ([5]; 10^-8 M/animal): 148* | number of PFC ([5]; 10^-8 M/animal): 223* | PFC (plaque-forming cells) ([5]; 10^-9 M/animal): 90* | number of PFC ([5]; 10^-9 M/animal): 126 | PFC (plaque-forming cells) ([5]; 10^-10 M/animal): 76 | number of PFC ([5]; 10^-10 M/animal): 185* | PFC (plaque-forming cells) ([5]; 10^-11 M/animal): 75 | number of PFC ([5]; 10^-11 M/animal): 162 | PFC (plaque-forming cells) ([5]; 10^-13 M/animal): 67 | number of PFC ([5]; 10^-13 M/animal): 143 | potency TP3 versus TP5 (PFC) ([5]; comparison, in words): TP3=TP5 potency | Active E-rosette forming cells ([6]; 10^-5 mol/l): 8.6* | Active E-rosette forming cells ([6]; 10^-7 mol/l): 7.5 | Active E-rosette forming cells ([6]; 10^-9 mol/l): 7.2 | Active E-rosette forming cells ([6]; 10^-11 mol/l): 10.7* | Active E-rosette forming cells ([6]; 10^-13 mol/l): 7.9* | severe infections ([7]; in parallel with radiation or chemotherapy): promising results in reducing severe infections | number of survivors [7]: not significantly affected | differentiation of T cells [8]: induces the differentiation of T cells

Source: patent US20260315564A1, “THE USE OF TP3 (THYMOPENTIN ANALOG) BY INCREASING THE ACTIVITY AND NUMBER OF T-CELLS INVOLVED IN THE DEFENSE MECHANISM OF THE IMMUNE SYSTEM OF MAMMALS, FOR THE PREVENTION OR TREATMENT OF DISEASES TO EXTEND THE AVERAGE LIFESPAN” (priority 2023, published 2026)
